According to patent publication US20210275640A1, “METHODS FOR ENHANCING PERMEABILITY TO BLOOD-BRAIN BARRIER, AND USES THEREOF” (ACADEMIA SINICA, priority 2014, published 2021):
Several values for one entry are separate records, joined by “and”; a condition that tells them apart may be missing. Identical values can stand only once. Like-named read-outs stand apart in the source and are kept apart here.

Experiments:
[1] = tested on: U-87MG glioblastoma xenograft; conditions: for Median Survival: VEGF 0.3 μg/kg where given
Method: The human luciferase-expressing glioblastoma cell line U-87MG was used for all GBM experiments. Cells were routinely cultured in EMEM with 10% FBS, at 37° C. with 5% CO2.
BALB/c nude mice were orthotropically xenografted with U87 glioma cells (2×10^5) by stereotactic (2 mm right and 1 mm posterior to the bregma, 3.5 mm deep from the dura) injection into the brain. Mouse tumor progression was measured by IVIS at different time points (0, 1, 3, 7 . . . every 7 days until 60 days).
The DNA methylating drug temozolomide (TMZ) was used as therapy for GBM model mice. […] Tumor growth was monitored by in vivo bioluminescent imaging. Mice were observed over 60 days and their survival rates recorded on a Kaplan-Meier survival curve.

[2] = tested on: U87 MG human glioblastoma xenograft; experiment: Effect of intravenous VEGF on tumor luminescence in U87 MG intracranial xenograft (IVIS); format: in vivo, BALB/c NU mice; conditions: paired t-test per mouse
[3] = tested on: blood-brain barrier (BBB)
[4] = tested on: MCAO ischaemic stroke model; experiment: Middle Cerebral Artery Occlusion (MCAO) model, hMSC cell therapy with VEGF pre-treatment; format: in vivo, rats
Text: The procedure published by Boyko and colleagues (Boyko, et al., Journal of Neuroscience Methods 193(2): 246-253; 2010) was used to create a middle cerebral artery occlusion (MCAO) model in rats. In brief, the left side carotid bifurcation was exposed with a self-retractor. After carefully separating the […] (ICA) from peripheral soft tissue, a small opening was created at the proximal ICA. Silicon-coated 4-0 monofilament nylon was inserted from the opening and penetrated forward to the beginning of middle cerebral artery (MCA). An O2C oximeter was used to transcranially monitor the ipsilateral MCA blood flow. Once blood flow decreased successfully, the nylon suture was fixed in situ, mimicking ischaemic stroke. After 90 minutes of ischaemic injury, the suture was removed, allowing reperfusion. A stable and reproducible cerebral infarction could be created with this procedure. […] MCAO model rats were divided into four groups: […] Discosoma sp. Red (Ds-Red)-expressing human mesenchymal stem cells (hMSCs) were used for MCAO cell therapy. […] To evaluate the infarction size, rats were sacrificed three days after ischaemic-reperfusion injury and treatment. […] Brain slices were then scanned and the infarction size was calculated by measuring the pale area with ImageJ software. […]

[5] = tested on: blood-brain barrier (BBB); experiment: Penetration of PEGylated fluorescent nanoparticles through the BBB (IVIS, immunohistochemistry); format: in vivo, FVB mice; conditions: 0.3 μg/Kg VEGF iv 45 min before PEGylated nanoparticles
Text: COOH-modified nanoparticles (20 to 500 nm) were covalently modified with methoxy (MeO)-PEG-amine (NH2) according to previously published protocols (Nance et al., Sci Transl Med 4(149): 149ra119; 2012). PEGylated fluorescent nanoparticles of 20 nm, 100 nm and 500 nm were used to investigate the biodistribution and extravasation after intravenous injection and perfusion into FVB mice. These nanoparticles were quantified by IVIS and immunohistochemistry.
All IVIS images were taken using a Xenogen IVIS Spectrum device (PerkinElmer, Waltham, Mass.).
The mice were subjected to perfusion following routine procedures 30 minutes after injection of the nanoparticles and the brain tissues were analyzed by IVIS imaging and immunohistochemistry. FIG. 2, panel A. The amount of nanoparticles accumulated in the brain tissue (i.e., across the BBB) was determined by measuring the intensity of the fluorescent signals. Results are illustrated in FIG. 2, panels B-D.

[6] = tested on: blood-brain barrier (BBB); remark: listed apart in the source

In the case of `Cn1nnc2c(C(N)=O)ncn2c1=O` [TMZ, temozolomide], the “Delay of GBM growth” value ([1]; 5 mg/kg TMZ, vs GBM mice not treated by TMZ) is reported as “at least 20 days”, the “Median Survival vs vehicle (% increase)” value ([1]; GBM mice, TMZ 5 mg/kg) is reported as 31.58 % increase and the “Median Survival” value ([1]; GBM mice, TMZ 5 mg/kg) is reported as 50 days. The “Median Survival vs vehicle (% increase)” value ([1]; GBM mice, TMZ 20 mg/kg) was 31.58 % increase and the “Median Survival” value ([1]; GBM mice, TMZ 20 mg/kg) was 50 days.
“vascular endothelial growth factor [VEGF]” was tested, and the “Median Survival with VEGF vs TMZ alone (% increase)” value ([1]; GBM mice, TMZ 5 mg/kg) was 10 % increase, the “Delay in tumor growth by TMZ with VEGF pre-treatment” value ([1]; VEGF 0.3 μg/kg before 5 mg/kg TMZ) was “further enhanced the delay in tumor growth” and the “Change of tumor size from D21 to D27” value [2] was “tumors were larger”. The “Persistence of increased BBB permeability” value ([3]; 0.3 μg/kg VEGF) was “at least 60 min”, the “Time of maximum BBB permeability after VEGF” value ([3]; 0.3 μg/kg VEGF) was “about 45 min” and the “Time after VEGF injection at which significant BBB permeability increase was observed” value ([3]; 0.3 μg/kg VEGF, EB injected after VEGF) was 15 min. For the same compound, the “Time to return to normal BBB permeability” value ([3]; after VEGF administration) was 2 h, the “Duration of increased BBB permeability” value ([3]; low dose VEGF) was “about 1 hr” and the “BBB permeability of EB (Evans Blue content of brain tissue)” value ([3]; mice, VEGF 0.1-2.0 μg/kg, vs saline control) was “increased BBB permeability”. For the same compound, the “Time of peak BBB permeability after VEGF administration” value ([3]; summary statement) was 45 min, the “Increase of BBB permeability” value ([3]; temporary increase after VEGF administration) was “approximately three-fold” and the Brain infarction ([4]; MCAO, VEGF pre-treatment 0.3 μg/kg) was “reduced the brain infarction”. For the same compound, the “hMSCs delivered to the brain (Ds-Red fluorescent intensity)” value ([4]; hMSCs 35 min after 0.3 μg/kg VEGF, vs control) was “more hMSCs were delivered to the brain”, the “Nanoparticles crossing the BBB (fluorescence intensity in brain)” value [5] was “facilitated the nanoparticles to cross BBB” and the “Cortex, signal to noise ratio T1WI Post-iv” value ([6]; 5 minutes after 0.2 mmol/kg gadolinium contrast agent, given 45 min after VEGF) was 58.30. The “Increase % of signal to noise ratio (detectable level of gadolinium contrast agent in brain)” value ([6]; average, VEGF 0.3 ug/kg pre-treatment) was 15.5% and the “Signal to noise ratio (SNR) enhancement, individual mice” value ([6]; each of the 3 VEGF-treated mice) was 17% and 14% and 15.5%.
